The nature of data set [1]: DNDI: Cytotoxicity against L-6 rat myoblasts from skeletal muscle cells. Conditions: L6 rat skeletal muscle myoblast cells.
The subject of data set [2] is Trypanosoma cruzi. The experiment in a line: microbe, parasite or virus in culture. The data set is classed as functional, organism-based, Tulahuen LacZ, Clone C4.
Data set [3] deals with Trypanosoma cruzi. Nature of the data set: microbe, parasite or virus in culture. The class given is functional, Tulahuen LacZ, Clone C4.
The mark [4] stands for this setting: Trypanosoma cruzi, Tulahuen LacZ, Clone C4.

Several values for one entry are separate records, joined by “and”; a condition that tells them apart may be missing. Equal entries are not always repeated.

On to `OC(c1cncnc1)(c1ccccc1Cl)c1ccccc1Cl`, for which the IC50 (commonly the concentration needed to halve the response being measured) in data set [1] (IC50) is more than 100000 nM; in the data set on Trypanosoma cruzi [2] (setting [4]), 1060 nM.
`OC(c1ccc(Cl)cc1)(c1cccnc1)c1ccc(Br)cc1F` (centres undefined) gave an IC50 with Trypanosoma cruzi [2] (setting [4]) of 27 nM. In the data set on Trypanosoma cruzi [3] (setting [4]), the concentration for an effect of 90% (IC90) (as a rule, the concentration at which the effect reaches the 90% level) came to 120 nM.
In the case of `OC(c1ccc(Cl)cc1)(c1cccnc1)c1ccc(Cl)cc1F` (centres undefined), the IC50 in data set [1] was more than 100000 nM; with Trypanosoma cruzi [2], 19 nM; in the data set on Trypanosoma cruzi [2] (setting [4]), 14 nM. The IC90 in the data set on Trypanosoma cruzi [3] was found to be 32 nM; with Trypanosoma cruzi [3] (setting [4]) it was 31 nM.
Consider `[O-][n+]1cncc(C(O)(c2ccc(Cl)cc2)c2ccccc2Cl)c1` (centres undefined), for which the IC50 was more than 100000 nM in data set [1] (IC50) and 14500 nM in the data set on Trypanosoma cruzi [2] (setting [4]).
Take `COC(c1ccc(Cl)cc1)(c1cccnc1)c1ccccc1Cl` (centres undefined): 90 nM corresponded to half-maximal inhibition in the data set with Trypanosoma cruzi [2] (setting [4]) (IC50). It took 10000 nM to reach the 90% level in the data set on Trypanosoma cruzi [3] (setting [4]) (IC90).
Consider `OC(c1ccc(Cl)cc1)(c1ncccn1)c1ccccc1Cl` (centres undefined), for which the figures for the IC50 (in data set [1] (IC50); with Trypanosoma cruzi [2] (setting [4])) were more than 100000 nM and 22900 nM, respectively. The compound also gave an IC90 with Trypanosoma cruzi [3] (setting [4]) of 66000 nM.
Regarding `CC1(C)CC(=O)C(C(=O)c2ccc(Cl)cc2Cl)C(=O)C1`, the IC50 was determined as 76500 nM in data set [1] (IC50) and 58500 nM with Trypanosoma cruzi [2] (setting [4]).
`CON=C(Cc1ccc(OC)cc1)c1ccc(OC)c(OC)c1OC`: the IC50 in data set [1] (IC50) is 92300 nM; in the data set with Trypanosoma cruzi [2] (setting [4]), more than 1000 nM.
As for `CCCCC(O)(c1ccc(Cl)cc1)c1cnccn1` (centres undefined), the IC50 in data set [1] (IC50) is more than 100000 nM; in the data set with Trypanosoma cruzi [2] (setting [4]), 330 nM. Besides, the IC90 in the data set with Trypanosoma cruzi [3] (setting [4]) is 3000 nM.
Consider `Cc1noc(C)c1C(=O)N1CCC(NC(c2ccc(C(F)(F)F)cc2)c2cccnc2)CC1` (centres undefined), for which the IC50 in data set [1] (IC50) is more than 100000 nM; in the data set with Trypanosoma cruzi [2], 36.5 nM; in the data set on Trypanosoma cruzi [2] (setting [4]) it was 20 nM. Besides, the IC90 with Trypanosoma cruzi [3] is 46 nM and 96 nM.
Take `CC(=O)N1CCN(C(c2ccc(Cl)cc2)c2cccnc2)CC1` (centres undefined): the IC50 was more than 100000 nM in data set [1] (IC50) and 490 nM [middle of 4 runs] in the data set on Trypanosoma cruzi [2]. For the same compound, the IC90 with Trypanosoma cruzi [3] is 820 nM and 930 nM and 520 nM; with Trypanosoma cruzi [3] (setting [4]), 960 nM.
In the data set on Trypanosoma cruzi [2] (setting [4]), `CC(C)c1ccc(C(O)(c2ccc(C(F)(F)F)cc2)c2cccnc2)cc1` (centres undefined) registered an IC50 of 2 nM. In the data set on Trypanosoma cruzi [3] (setting [4]), the IC90 worked out at 7 nM.
On to `OC(c1ccc(Cl)cc1)(c1cccnc1)c1ccc(Cl)s1` (centres undefined), for which the IC50 in data set [1] (IC50) is 50000 nM; in the data set on Trypanosoma cruzi [2] (setting [4]), 77 nM.
Regarding `CC(C)(C)NC(=O)N1CCC(NC(c2ccc(C(F)(F)F)cc2)c2cccnc2)CC1` (centres undefined), the results for the IC50 (in data set [1] (IC50); with Trypanosoma cruzi [2]; with Trypanosoma cruzi [2] (setting [4])) were more than 100000 nM, 61 nM and 48 nM, respectively. For the same compound, the IC90 with Trypanosoma cruzi [3] stood at 207 nM; with Trypanosoma cruzi [3] (setting [4]), 402 nM.
Take `CON=C(Cc1ccccc1)c1ccc(OC)cc1`: the IC50 in data set [1] (IC50) was more than 100000 nM; in the data set on Trypanosoma cruzi [2] (setting [4]) it was more than 1000 nM.
Turning to `CON=C(Cc1ccccc1C(=O)O)c1ccc(Cl)cc1`, the values for the half-maximal inhibitory concentration (IC50) (in data set [1] (IC50); in the data set with Trypanosoma cruzi [2] (setting [4])) were more than 100000 nM and more than 1000 nM, respectively.
`CC(C)C(=O)N1CCN(C(c2ccc(Cl)cc2)c2cncnc2)CC1` (centres undefined) had a concentration for half-maximal inhibition (IC50) in the data set with Trypanosoma cruzi [2] of 680 nM. In the data set on Trypanosoma cruzi [3], this compound registered an IC90 of more than 1000 nM.
The like results for `CS(=O)(=O)N1CCC(CNC(c2ccc(C(F)(F)F)cc2)c2cnccn2)CC1` (centres undefined) were, in that order, 360 nM and 910 nM.
For the compound `O=C(C1CC1)N1CCN(C(c2cncnc2)c2ccc(Cl)cc2F)CC1` (centres undefined), the figures for the 50% inhibitory concentration (IC50) (in data set [1] (IC50); in the data set with Trypanosoma cruzi [2]; in the data set on Trypanosoma cruzi [2] (setting [4])) were more than 100000 nM, 171 nM and 180 nM, respectively. For the same compound, the IC90 in the data set with Trypanosoma cruzi [3] is 306 nM and 614 nM.
For the compound `CS(=O)(=O)N1CCN(C(c2cccnc2)c2ccc(Cl)cc2F)CC1` (centres undefined), the IC50 in data set [1] (IC50) is more than 100000 nM; in the data set on Trypanosoma cruzi [2], 35 nM and 46 nM. Besides, in the data set with Trypanosoma cruzi [3], the IC90 is 160 nM and 110 nM.
Regarding `NC(=O)c1cccc(C(O)(c2ccc(Cl)cc2)c2cccnc2)c1` (centres undefined), the IC50 in data set [1] (IC50) is more than 100000 nM; with Trypanosoma cruzi [2] it was 30 nM and 78 nM. Further, in the data set on Trypanosoma cruzi [3], the 90% effect concentration (IC90) was 100 nM and 320 nM.
In the data set with Trypanosoma cruzi [2], `O=C(C1CC1)N1CCC(NC(c2ccc(C(F)(F)F)cc2)c2cnccn2)CC1` (centres undefined) registered an IC50 of 640 nM. This compound yielded an IC90 in the data set on Trypanosoma cruzi [3] of more than 1000 nM.
Turning to `CC(C)Oc1ccccc1C(O)(c1ccc(Cl)cc1)c1cccnc1` (centres undefined), in the data set on Trypanosoma cruzi [2] (setting [4]), 446 nM corresponded to half-maximal inhibition (IC50). In addition, the IC90 in the data set with Trypanosoma cruzi [3] (setting [4]) was 820 nM.
For the compound `CON=C(c1ccc(Cl)cc1)C1(c2ccccc2C(=O)O)CC1`, the IC50 in data set [1] (IC50) is more than 100000 nM; in the data set on Trypanosoma cruzi [2] (setting [4]), more than 1000 nM.
`COc1ccc(C(O)(c2cncnc2)c2ccccc2Cl)cc1` (centres undefined): the IC50 worked out at 70900 nM in data set [1] (IC50) and 393 nM in the data set with Trypanosoma cruzi [2] (setting [4]). In addition, in the data set on Trypanosoma cruzi [3] (setting [4]), the IC90 stood at 60000 nM.
On to `O=C(NC1CCN(C(c2ccc(C(F)(F)F)cc2)c2cnccn2)CC1)C1CC1` (centres undefined), for which the IC50 in data set [1] (IC50) was more than 100000 nM; in the data set on Trypanosoma cruzi [2], 575 nM; in the data set with Trypanosoma cruzi [2] (setting [4]), 660 nM. Further, the results for the IC90 in the data set on Trypanosoma cruzi [3] and in the data set on Trypanosoma cruzi [3] (setting [4]) were 1290 nM and more than 1000 nM, respectively.
As for `OC(c1cccnc1)(c1cccc(F)c1)c1ccccc1Cl` (centres undefined), the IC50 in data set [1] is more than 100000 nM; in the data set with Trypanosoma cruzi [2] it was 752 nM; with Trypanosoma cruzi [2] (setting [4]), 558 nM. For the same compound, the IC90 in the data set on Trypanosoma cruzi [3] (setting [4]) was more than 1000 nM.
Take `OC(c1ccc(Cl)cc1)(c1cccnc1)c1cnc(Cl)nc1` (centres undefined): the IC50 in data set [1] (IC50) is more than 100000 nM; with Trypanosoma cruzi [2] it was 163 nM and 480 nM. The IC90 with Trypanosoma cruzi [3] is 339 nM and 850 nM.
Turning to `OC(c1ccc(Cl)cc1)(c1cccnc1)c1ccccc1F` (centres undefined), the IC50 is more than 100000 nM in data set [1], 34.8 nM with Trypanosoma cruzi [2] and 54 nM in the data set on Trypanosoma cruzi [2] (setting [4]). Besides, the figures for the IC90 in the data set with Trypanosoma cruzi [3] and with Trypanosoma cruzi [3] (setting [4]) were 179 nM and 152 nM, respectively.
